Measurements published in ChEMBL document CHEMBL1201862, “PubChem BioAssay data set” (2004).
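Method: 48-hour compound exposure of cells in 96-well plates, five concentrations, linear interpolation of endpoints. At the GI50, growth is halved.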 The source made the active and inactive calls. No stated cut-off is given here; in the data, active = GI50 up to about 1.1 µM and inactive = higher.

Assays:
Assay in all cases: NCI anticancer screen, dose series, 48 h
MDA-N = tested on: MDA-N
SNB-78 = tested on: SNB-78
DMS-114 = tested on: DMS-114
KM-20L2 = tested on: KM-20L2
HOP-18 = tested on: HOP-18
LXFL 529 = tested on: LXFL 529
M19-MEL = tested on: M19-MEL
RXF 631 = tested on: RXF 631
XF498 = tested on: XF498

| Compound | GI50 (MDA-N) | GI50 (SNB-78) | GI50 (KM-20L2) | GI50 (HOP-18) | GI50 (LXFL 529) | GI50 (M19-MEL) | other results |
| --- | --- | --- | --- | --- | --- | --- | --- |
| NNC(=O)c1ccccc1Nc1ccccc1C(=O)NN | > 100 µM (inactive) | – | – | – | – | – | – |
| CCN(CC)c1ccc(C2Nc3ccc4ccccc4c3C3=C2C(=O)CCC3)cc1 (centres undefined) | > 100 µM (inactive) | – | – | – | – | – | – |
| OC1C2[C@@H](O)CCCN2C[C@@H](O)[C@H]1O (some centres undefined) | > 100 µM (inactive) | – | – | – | – | – | – |
| C[C@H](CCC(=O)O)[C@H]1CC[C@H]2[C@@H]3[C@H](O)C[C@@H]4C[C@H](O)CC[C@]4(C)[C@H]3CC[C@]12C [CHENODIOL] | 37.7 µM (inactive) | – | – | – | – | – | – |
| CC(C)(C)C1(O)Cc2ccccc2C(=O)O1 (centres undefined) | – | > 100 µM (inactive) | > 100 µM (inactive) | > 100 µM (inactive) | > 100 µM (inactive) | > 100 µM (inactive) | GI50 (DMS-114): > 100 µM (inactive); GI50 (RXF 631): > 100 µM (inactive) |
| N=C(N)NC(=N)Nc1ccc(S(N)(=O)=O)cc1 | > 100 µM (inactive) | – | – | – | – | – | – |
| C[N+](C)(C)CC(=O)N/N=C\c1c(O)ccc2ccccc12 | 42.9 µM (inactive) | – | – | – | – | – | – |
| COc1ccc(C(C)c2cc3c(cc2OC)OCO3)cc1 (centres undefined) | 0.019 µM (active) | 0.612 µM (active) | 0.225 µM (active) | 0.371 µM (active) | 0.125 µM (active) | 0.395 µM (active) | GI50 (DMS-114): 0.339 µM (active) |
| CC(=O)c1c(O)c(C)c(O)c(Cc2c(O)c3c(c(C(=O)/C=C/c4ccccc4)c2O)OC(C)(C)C=C3)c1O [ROTTLERIN] | 3.14 µM (inactive) | – | – | – | – | – | – |
| NS(=O)(=O)c1cccc(NC(=S)NC(=O)Nc2ccc(Cl)c(Cl)c2)c1 | 18.6 µM (inactive) | – | – | – | – | – | – |
| O=C(C(Cl)=C(N1CCCCC1)N1CCCCC1)C(Cl)Cl | > 100 µM (inactive) | – | – | – | – | – | – |
| Cl.O=C(O)c1cccnc1 | > 100 µM (inactive) | – | – | – | – | – | – |
| CCOc1ccc(/N=N/c2ccc3oc(=O)c(C(=O)Nc4ccc(OC)cc4)cc3c2)cc1 | – | 21.3 µM (inactive) | 32.2 µM (inactive) | – | 6.82 µM (inactive) | 26.4 µM (inactive) | – |
| CC(=O)Nc1ccc(C(O)/C(=N/N)c2nc3ccc(Cl)cc3nc2O)cc1 (centres undefined) | > 100 µM (inactive) | – | – | – | – | – | – |
| S=C(S)NCCN1CCNCC1 | 37.2 µM (inactive) | – | – | – | – | – | – |
| O=C(O)CSc1nnc(-c2ccccc2)[nH]1 | – | – | > 100 µM (inactive) | > 100 µM (inactive) | > 100 µM (inactive) | > 100 µM (inactive) | GI50 (XF498): > 100 µM (inactive) |

| Compound | GI50 (MDA-N) | GI50 (SNB-78) | GI50 (KM-20L2) | GI50 (HOP-18) | GI50 (LXFL 529) | GI50 (M19-MEL) | other results |
| --- | --- | --- | --- | --- | --- | --- | --- |
| Cn1c2c(c3ccccc31)CCN(CCCCN1CCN(c3cccc(Cl)c3)CC1)C2=O | – | 2.88 µM (inactive) | 4.17 µM (inactive) | 29 µM (inactive) | 11.1 µM (inactive) | 11.5 µM (inactive) | GI50 (DMS-114): 1.67 µM (inactive); GI50 (XF498): 14.4 µM (inactive) |
| COc1cc(OC2OC(COC(=O)c3cc(O)c(O)c(O)c3)C(O)C(O)C2O)ccc1O (centres undefined) | 30.5 µM (inactive) | – | – | – | – | – | – |
| CC1(C)OC2C(O)C(CO)OC2(C(F)F)O1 (centres undefined) | > 100 µM (inactive) | – | – | – | – | – | – |
| Ic1cccc(/C=C/CN2CCN(CCOC(c3ccccc3)c3ccccc3)CC2)c1 | 17.9 µM (inactive) | – | – | – | – | – | – |
| COc1nc(NC2OCC(OC(C)=O)C(OC(C)=O)C2OC(C)=O)c(/N=C\C=N\c2c(NC3OCC(OC(C)=O)C(OC(C)=O)C3OC(C)=O)nc(OC)n(C)c2=O)c(=O)n1C (centres undefined) | – | > 100 µM (inactive) | > 100 µM (inactive) | > 100 µM (inactive) | > 100 µM (inactive) | > 100 µM (inactive) | GI50 (XF498): 17.9 µM (inactive) |
| COc1cc(C2c3cc4c(cc3OC(NCCc3ccccc3)C2C)OCO4)cc(OC)c1OC (centres undefined) | 0.0638 µM (active) | – | – | – | – | – | – |
| C(/C=C/N1CCCC1)=C\c1nc(N2CCCC2)c2ccccc2n1 | – | 20.7 µM (inactive) | 24.9 µM (inactive) | 16.5 µM (inactive) | 14.7 µM (inactive) | 17 µM (inactive) | GI50 (DMS-114): 18.5 µM (inactive); GI50 (RXF 631): 7.73 µM (inactive) |
| CC(C)NCC(O)c1ccc(O)c2ncccc12 (centres undefined) | 91.2 µM (inactive) | – | – | – | – | – | – |
| CC(C)(C)c1cc(C(C)(C)C)c(SS(=O)(=O)O)c(O)c1O | 30.1 µM (inactive) | – | – | – | – | – | – |
| COc1ccc(C=O)cc1O[Si](C)(C)C(C)(C)C | – | > 100 µM (inactive) | > 100 µM (inactive) | 33.7 µM (inactive) | > 100 µM (inactive) | > 100 µM (inactive) | GI50 (DMS-114): > 100 µM (inactive) |
| COC(=O)/C(C#N)=C1\NN=NN1CCCN1CCOCC1 | – | > 100 µM (inactive) | – | > 100 µM (inactive) | > 100 µM (inactive) | > 100 µM (inactive) | GI50 (DMS-114): > 100 µM (inactive) |
| C/C=C/C=N/N(c1nnc(-c2ccccc2)c(-c2ccccc2)n1)S(=O)(=O)c1ccc(C)cc1 | – | 15.3 µM (inactive) | 13.2 µM (inactive) | 14.2 µM (inactive) | 7.21 µM (inactive) | 13.2 µM (inactive) | GI50 (DMS-114): 13 µM (inactive); GI50 (RXF 631): 17.5 µM (inactive) |
| CCN(CC)CC1CN=C(N)O1 (centres undefined) | > 100 µM (inactive) | – | – | – | – | – | – |
| Nc1nc(Cl)c(C=O)c(NCC2(CO)CCC2)n1 | 21.3 µM (inactive) | – | – | – | – | – | – |
| Cc1ccc(Nc2nc(C)c(C(=O)CC(=O)C(=O)Nc3ccc(Cl)cc3)s2)cc1 | > 100 µM (inactive) | – | – | – | – | – | – |
| O=C(/C=C/c1ccccc1)c1ccc(Cl)cc1Cl | – | 22.6 µM (inactive) | 19.5 µM (inactive) | 22 µM (inactive) | 15.1 µM (inactive) | 23.4 µM (inactive) | GI50 (DMS-114): 17.3 µM (inactive); GI50 (RXF 631): 38 µM (inactive) |
